Tests used:
[1] = molecular target: human TRPV1 (Homo sapiens, UniProt Q8NER1); experiment: FLIPR antagonism of capsaicin; type: cell-based; details: for fold better antagonism than linear derivative 15c: Ki(CAP) versus 15c; for antagonism of capsaicin response, in words: capsaicin 100 nM; for fold more potent than the corresponding racemate: Ki(CAP), (S)-isomer versus racemate
[2] = tested on: CCI-induced cold allodynia; experiment: Bennett model; type: in vivo, rat
[3] = tested on: capsaicin-induced hypothermia; experiment: Inhibition of capsaicin-induced hypothermia; type: in vivo, mouse; details: 15 min before 3 mg/kg ip capsaicin, assayed 30 min after capsaicin

Sequence of human TRPV1 (Q8NER1 whole entry): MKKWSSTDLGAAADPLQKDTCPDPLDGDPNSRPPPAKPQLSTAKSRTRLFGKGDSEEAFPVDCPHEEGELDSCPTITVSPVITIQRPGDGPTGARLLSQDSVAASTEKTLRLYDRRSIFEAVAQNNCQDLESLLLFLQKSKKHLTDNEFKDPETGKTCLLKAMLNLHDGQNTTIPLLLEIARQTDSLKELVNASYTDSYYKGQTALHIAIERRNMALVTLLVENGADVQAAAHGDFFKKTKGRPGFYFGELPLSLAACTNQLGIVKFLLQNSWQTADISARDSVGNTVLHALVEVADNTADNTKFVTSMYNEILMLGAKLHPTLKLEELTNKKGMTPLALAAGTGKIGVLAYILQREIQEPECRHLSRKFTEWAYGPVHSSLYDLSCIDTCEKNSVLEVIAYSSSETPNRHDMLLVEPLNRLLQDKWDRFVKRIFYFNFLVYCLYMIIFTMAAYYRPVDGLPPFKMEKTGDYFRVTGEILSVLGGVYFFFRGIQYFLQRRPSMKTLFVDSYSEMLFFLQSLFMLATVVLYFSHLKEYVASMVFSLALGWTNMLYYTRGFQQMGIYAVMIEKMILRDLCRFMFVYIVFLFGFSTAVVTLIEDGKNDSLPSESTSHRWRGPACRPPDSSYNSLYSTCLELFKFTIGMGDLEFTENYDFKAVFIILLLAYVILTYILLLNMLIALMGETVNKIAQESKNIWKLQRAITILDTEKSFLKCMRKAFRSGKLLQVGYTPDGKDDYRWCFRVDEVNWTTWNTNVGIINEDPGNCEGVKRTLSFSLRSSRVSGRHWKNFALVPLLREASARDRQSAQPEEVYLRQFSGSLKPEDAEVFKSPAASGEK

CC(C(=O)NCc1ccc(C(F)(F)F)nc1CCC(C)(C)C)c1ccc(NS(C)(=O)=O)c(F)c1 (stereo not drawn) [15e]
fold better antagonism than linear derivative 15c [1]: ca. 2 fold

CCC/C=C\c1nc(C(F)(F)F)ccc1CNC(=O)C(C)c1ccc(NS(C)(=O)=O)c(F)c1 (stereo not drawn) [16c]
fold less potent than saturated derivative 15b ([1]; Ki(CAP) versus 15b): 2 fold

CC(C(=O)NCc1ccc(C(F)(F)F)nc1Cl)c1ccc(NS(C)(=O)=O)c(F)c1 (stereo not drawn) [compound 8]
antagonism of capsaicin response, in words [1]: weak antagonists

CC(C)C[C@H](CN)CC(=O)O [pregabalin, reference compound]
anti-allodynic activity, max effect ([2]; at 100 mg/kg): 69%

C[C@H](C(=O)NCc1ccc(C(F)(F)F)nc1C1CC2CCC1C2)c1ccc(NS(C)(=O)=O)c(F)c1 (stereo partly drawn) [(S)-15n]
fold more potent than the corresponding racemate [1]: ca. 2 fold

CC1CC=C(c2nc(C(F)(F)F)ccc2CNC(=O)[C@@H](C)c2ccc(NS(C)(=O)=O)c(F)c2)CC1 (stereo partly drawn) [(S)-15p]
fold more potent than the corresponding racemate [1]: ca. 2 fold

CCC1CCC(c2nc(C(F)(F)F)ccc2CNC(=O)C(C)c2ccc(NS(C)(=O)=O)c(F)c2)CC1 (stereo not drawn) [15h]
fold increase in potency compared to 15f ([1]; Ki(CAP) versus 15f): 2 fold

C[C@H](C(=O)NCc1ccc(C(F)(F)F)nc1C1CCCCC1)c1ccc(NS(C)(=O)=O)c(F)c1 [(S)-15f]
fold more potent than the corresponding racemate [1]: 2 fold

C[C@H](C(=O)NCc1ccc(C(F)(F)F)nc1C1=CCC(C)(C)CC1)c1ccc(NS(C)(=O)=O)c(F)c1 [(S)-15u]
fold more potent than the corresponding racemate [1]: ca. 2 fold

CC(C(=O)NCc1ccc(C(F)(F)F)nc1Br)c1ccc(NS(C)(=O)=O)c(F)c1 (stereo not drawn) [compound 9]
antagonism of capsaicin response, in words [1]: weak antagonists

CCC1CCC(c2nc(C(F)(F)F)ccc2CNC(=O)[C@@H](C)c2ccc(NS(C)(=O)=O)c(F)c2)CC1 (stereo partly drawn) [(S)-15h]
fold more potent than the corresponding racemate [1]: ca. 2 fold

C[C@H](C(=O)NCc1ccc(C(F)(F)F)nc1C1=CCC(C(C)(C)C)CC1)c1ccc(NS(C)(=O)=O)c(F)c1 (stereo partly drawn) [(S)-15t]
fold more potent than the corresponding racemate [1]: ca. 2 fold

CC(C(=O)NCc1ccc(C(F)(F)F)nc1C1CC2CCC1C2)c1ccc(NS(C)(=O)=O)c(F)c1 (stereo not drawn) [15n]
fold less potent than monocycle 15f ([1]; Ki(CAP) versus 15f): 2.5 fold

C[C@H](C(=O)NCc1ccc(C(F)(F)F)nc1C1CCC(C)(C)CC1)c1ccc(NS(C)(=O)=O)c(F)c1 [(S)-15l]
fold more potent than the corresponding racemate [1]: ca. 2 fold

CC(C)=Cc1nc(C(F)(F)F)ccc1CNC(=O)C(C)c1ccc(NS(C)(=O)=O)c(F)c1 (stereo not drawn) [16a]
antagonism of capsaicin response, in words [1]: moderate antagonistic activity

CC(C(=O)NCc1ccc(C(F)(F)F)nc1C1CCCCC1)c1ccc(NS(C)(=O)=O)c(F)c1 (stereo not drawn) [15f]
fold better antagonism than linear derivative 15c [1]: 2.5 fold
CAP-induced hypothermia, inhibition ([3]; 0.1 mg/kg po): 24 % inh.
CAP-induced hypothermia, inhibition ([3]; 0.3 mg/kg po): 78 % inh.
Bennett model, maximal possible effect ([2]; 10 mg/kg po): 60 MPE
anti-allodynic activity, max effect ([2]; at 10 mg/kg po): 60%

CC(C)CCCc1nc(C(F)(F)F)ccc1CNC(=O)C(C)c1ccc(NS(C)(=O)=O)c(F)c1 (stereo not drawn) [15d]
fold better antagonism than linear derivative 15c [1]: ca. 2 fold

From paper PMC6956567 (Bioorganic & medicinal chemistry letters, 2014)
